Results reported in patent US20240358681A1, “METHODS OF USE OF PPAR AGONIST COMPOUNDS AND PHARMACEUTICAL COMPOSITIONS THEREOF” (Mitobridge, Inc., priority 2021, published 2024).
Where “and” joins values, the source holds several entries; their conditions need not be identical. Equal values may be shown once. Entries after “also recorded” stand apart in the source; their conditions may differ.

Key:
[1] = system: fibroblasts from patients harboring mitochondrial mutations (Leigh Syndrome/LHON, MELAS, KSS) and MERRF cybrid cell line; assay: Gene expression analysis in cells harboring mitochondrial mutations; assay type: cell-based, human; settings: for ACADVL expression: FIG. 3C
Text: Leigh syndrome/Leber's hereditary optic neuropathy (LHON) cells were isolated from a patient diagnosed with both Leigh syndrome and LHON. This subject had two point mutations; one in the mtDNA-encoded ND4 gene (mutation 11778G>A) and one in the mtDNA encoded ND6 gene (mutation 14484T>C) in the NADH dehydrogenase complex. m.3243A>G MELAS (Mitochondrial encephalomyopathy, lactic acidosis, and stroke-like episodes) cells were isolated from a patient harboring the m.3243A>G mutation in the mtDNA-encoded tRNA-leucine gene. Kearns Sayre Syndrome (KSS) fibroblast cells were isolated from a patient harboring the 5 kilobase (Kb) common deletion and were obtained from the Coriell Institue along with a control fibroblast cell line. MERRF m.8344A>G osteosarcoma transmitochondrial cybrids were acquired from the Moraes lab (Masucci, J. P., M. P. Schon Ea Fau-King, and M. P. King, Point mutations in the mitochondrial tRNA(Lys) gene: implications for pathogenesis and mechanism. (0300-8177)).
MELAS m.3243A>G fibroblasts were grown in Eagle's minimum essential media (EMEM) supplemented with 10% heat inactivated FBS, 1 mM sodium pyruvate, 1× non-essential amino acids, 2 mM 1-glutamine, and 100 μg/ml of uridine. KSS fibroblasts were grown in EMEM supplemented with 15% heat inactivated FBS, 1× non-essential amino acids, and 100 μg/ml of uridine. Leigh/LHON syndrome fibroblast cell lines were grown in Dulbecco's modified eagle medium (DMEM) supplemented with 1 mM sodium pyruvate, 10% HI FBS, and 100 μg/ml of uridine. MERRF tRNA-LYS 8344 cybrid cells were grown in DMEM supplemented with 10% heat inactivated FBS, 1 mM sodium pyruvate and 100 μg/ml of uridine.
All cell lines with the exception of LHON/Leigh Syndrome fibroblasts were plated at a density of 50 k/well in 6 well plates. Compound (I) or 0.1% DMSO was added 8 hours later in complete media. Treatment media or vehicle media were refreshed 24 hours later for a total treatment time of 48 hours. LHON/Leigh Syndrome fibroblasts were plated and treated in the same manner but for a total treatment time of 24 hours.
mTotal RNA was isolated using NucleoSpin® kits (Macherey-Nagel) as per manufacturer's protocol. One microgram of total RNA was used to generate cDNA using the High-Capacity cDNA Reverse Transcription Kit (Applied Biosystems).
MELAS m.3243A>G fibroblasts, KSS Fibroblast and MERRF tRNA-Lys 8344 cybrid gene expression was performed using 5 ng cDNA and 300 nM of primers were mixed with water and iQ SYBR Green master mix, loaded in 384-well qPCR plates, and subsequently analyzed using a BioRad CFX384 Real-Time PCR Detection System. Fold change was calculated as ΔCt on a per sample basis was calculated as Ct (Gene of interest)−Ct (Average of reference genes). The ΔΔCt was then calculated as ΔCt (experimental sample)−Average ΔCt (control group). Fold change was calculated as 2^−ΔΔCT. LHON/Leigh Syndrome fibroblast cDNA was mixed with dH2O and SYBR Green master mix and 1 μM of primers were dispensed into the sample source plates and primer source plates in 384-well plates, respectively. Reactions were loaded into SmartChip (WaferGen Bio-systems) with Multisample Nanodispenser and the chip was analyzed in the SmartChip Cycler.
Raw expression data was exported from software and graphed after processing with reference genes and normalized against control using QBase software. To obtain normalized values, the calibrated normalized relative quantities (CNRQ) values of each sample were divided by the average CNRQ for all vehicle treated samples in order to make expression relative to the control group.

[2] = system: MELAS m.3243A>G fibroblasts; assay: Seahorse mitochondrial fatty acid oxidation; assay type: cell-based, human
Method: (§1) FAO was measured using a Seahorse XF96 (Seahorse Biosciences). MELAS m.3243A>G fibroblasts, KSS fibroblasts, and MERRF tRNA-Lys 8344 cybrids were treated with DMSO or Compound (I) 8 hours after seeding into flasks. 24 hours after initial treatment, media was changed to complete media with DMSO or Compound (I) with reduced glucose (1.1 mM for primary fibroblasts and 5.5 mM for cybrids) and 0.5 mM carnitine. After 48 hours after initial treatment, cells were plated into 96-well cell culture microplates at a density of 40,000 cells per well. FAO assay was initiated 8 hours after plating.
(§2) 200 μL of KHB was added to the blank wells and 200 μL KHB mixed with control BSA (final 0.074 mM) or BSA-palmitate (final 0.074 mM BSA, 500 μM palmitate was added to the appropriate wells. Stress test components compounds are added in the following sequential order; 1) Oligomycin, 2) FCCP, and 3) Rotenone and Antimycin A for final concentrations of 2.5 μM, 6 μM and 1 μM, respectively. Oxidation of palmitate was assessed using the same ratio as LHON/Leigh fibroblasts.

[3] = system: MERRF tRNA-Lys 8344 cybrids; assay: Seahorse mitochondrial fatty acid oxidation; assay type: cell-based, human; settings: MERRF cybrid cell line, FIG. 4B
Method: as §1, §2

[4] = Tissue exposure in skeletal muscle (gastrocnemius) of aged DIO mice; assay type: in vivo, mouse; settings: 30 mg/kg oral once daily, 5 weeks, FIG. 6A
Method: All animal studies were performed in accordance with Charles River Laboratories animal welfare protocols. Male Diet-Induced Obese (DIO) C57BL/6NTac mice 28 weeks of age were fed a high fat diet. 20 mice were randomized based on bodyweight into two cohorts of 10 mice each. Five mice were assigned to each treatment group in each cohort (i) vehicle or (ii) Compound (I) at 30 mg/kg via (n=10 total animals per treatment). […] Mice were acclimatized to the treadmill room for one hour on days of training or endurance runs. After an initial 5 min exploration period the treadmill belt moved at 5 m/min for 10 min with the motivation grid intensity set to 0.46 mA. Mice required a few visits to the grid to learn to walk/run on the moving belt and avoid the electric grid shock. After two acclimatization periods the mice learned to avoid the electric grid and stay on the moving belt, with fewer visits to the electric grid. The maximum speed for the endurance run was capped at 16.5 m/min based on speed acclimation runs, which represents the speed at which 25% of animals are running in the top ⅔ of the treadmill at a 5° slope. The mice were considered exhausted if they stayed on the electric grid with no limbs on the treadmill belt for 10 seconds.
Before and after the exhaustion run, blood samples were obtained via a tail vein nick. […]

[5] = 26-week rat GLP toxicity study; assay type: in vivo

## Cc1cnc(-c2ccc(C(F)(F)F)cc2)n1Cc1ccccc1OCCC[C@@H](C)CC(=O)O [Compound (I), (R)-3-Methyl-6-(2-((5-methyl-2-(4-(trifluoromethyl)phenyl)-1H-imidazol-1-yl)methyl)-phenoxy)hexanoic acid]
[1]; 24 or 48 hour treatment, across all four cell lines tested, FIG. 3B
  PDK4 transcript increase: 10 to 50 fold and 10 to 100 fold
[1]; 24 or 48 hours treatment, FIG. 3A
  ANGPTL4 induction (marker of target engagement): large induction; also recorded: greatly induced
[1]; MELAS and MERRF cells, n=2, no statistical comparison
  ACADVL expression: showed induction
[1]; across all cell lines tested, FIG. 3D
  CPT1A transcript induction: approximately 2 fold
[1]; across all four cell lines tested, FIG. 3E
  SLC25A20 expression: induced
[1]; across four cell lines with mitochondrial mutations, FIG. 3C-3E
  Genes involved in the import, packaging and catabolism of fatty acids into the mitochondria for OXPHOS: upregulated
[1]; two of the lines tested
  ACADVL expression: significantly upregulated
[2]; MELAS patient fibroblasts, two biological replicates, FIG. 4B
  fatty acid-mediated OXPHOS, dose response: trending dose response
[2]; MELAS, 30 nM
  increase in fatty acid mediated OXPHOS: thirty percent or greater
  restoration to the fatty acid-mediated OXPHOS of healthy donor fibroblasts: partial
[3]; 30 nM
  fatty acid mediated OXPHOS response: less pronounced
[3]
  fatty acid mediated OXPHOS, dose response: dose-dependent trend
[4]
  skeletal muscle exposure: detectable and covered the mouse EC50
[5]
  no observed adverse effect level (NOAEL): highest tested dose
